From patent US20230011869A1 (Hoffmann-La Roche Inc., priority 2018, published 2023)
Where a name gives a salt, the structure may show the parent alone. Read-outs that look alike come from different tables or passages of the source.

Test system: Acinetobacter baumannii ATCC17978
Test: Antimicrobial susceptibility testing: 90% growth inhibitory concentration (IC90) determination, Iso-Sensitest broth
Assay type: cell-based
Outline: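 A. baumannii ATCC17978 grown in Iso-Sensitest broth across 10 compound concentrations at 35±2 °C.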

[1] = Acinetobacter baumannii, ATCC17978, 16 h, read-out: ATCC17978 IC90, 90% growth inhibitory concentration, Acinetobacter baumannii ATCC17978, Iso-Sensitest broth, OD 600 nm over 16 h
[2] = 90% growth inhibitory concentration, Acinetobacter baumannii ATCC17978, Iso-Sensitest broth, OD 600 nm over 16 h, read-out: ATCC17978 IC90

| IC90 [2] [µM] | Structure (SMILES) | IC90 [1] [µM] |
| --- | --- | --- |
| – | Cc1cc(Nc2nccn3c(-c4ccc(OC(F)F)cc4)cnc23)ccc1C(=O)N1CCC2(CCOCC2)C1 [Example 370, [4-[[3-[4-(difluoromethoxy)phenyl]imi-dazo[1,2-a]pyrazin-8-yl]amino]-2-methylphenyl]-(8-oxa-2-azaspiro[4.5]decan-2-yl)methanone] | 1.1 |
| 1.2 | COc1ccc(-c2cnc3c(Nc4ccc(C(=O)N5CCN(CCO)CC5)c(C)c4)nccn23)cc1 [Example 371, [4-(2-hydroxyethyl)piperazin-1-yl]-[4-[[3-(4-methoxyphenyl)imidazo[1,2-a]pyrazin-8-yl]amino]-2-methylphenyl]methanone] | – |
| – | Cc1cc(Nc2nccn3c(-c4ccc(OC(F)F)cc4)cnc23)ccc1C(=O)N1CCN(CC(=O)N(C)C)CC1 [Example 372, 2-[4-[4-[[3-[4-(difluoromethoxy)phenyl]imi-dazo[1,2-a]pyrazin-8-yl]amino]-2-methylbenzoyl]piperazin-1-yl]-N,N-dimethylacetamide] | 1.2 |
| – | CNC1CCN(C(=O)c2ccc(Nc3nccn4c(-c5ccc(OC(F)F)cc5)cnc34)cc2C)CC1 [Example 374, [4-[[3-[4-(difluoromethoxy)phenyl]imi-dazo[1,2-a]pyrazin-8-yl]amino]-2-methylphenyl]-[4-(methylamino)piperidin-1-yl]methanone; hydrochloride] | 1.7 |
| – | Cc1cc(Nc2nccn3c(-c4ccc(OC(F)F)cc4)cnc23)ccc1C(=O)N1CCC(C(N)=O)(N2CCN(C)CC2)CC1 [Example 375, 1-[4-[[3-[4-(difluoromethoxy)phenyl]imi-dazo[1,2-a]pyrazin-8-yl]amino]-2-methylbenzoyl]-4-(4-methylpiperazin-1-yl)piperidine-4-carboxamide] | 2 |
| – | Cc1cc(Nc2nccn3c(-c4ccc(OC(F)F)cc4)cnc23)ccc1C(=O)N1CCC2(CCCNC2)CC1 [Example 376, 2,9-diazaspiro[5.5]undecan-9-yl-[4-[[3-[4-(difluromethoxy)phenyl]imi-dazo[1,2-a]pyrazin-8-yl]amino]-2-methylphenyl]methanone; hy-drochloride] | 2 |
| – | Cc1cc(Nc2nccn3c(-c4ccc(OC(F)F)cc4)cnc23)ccc1C(=O)N1CCN(CC(=O)N2CCCC2)CC1 [Example 377, 2-[4-[4-[[3-[4-(difluoromethoxy)phenyl]imi-dazo[1,2-a]pyrazin-8-yl]amino]-2-methylbenzoyl]piperazin-1-yl]-1-pyrrolidin-1-ylethanone] | 2.3 |
| – | Cc1cc(Nc2nccn3c(-c4ccc(OC(F)F)cc4)cnc23)ccc1C(=O)N1CCOCC1CN (stereo not drawn) [Example 378, [3-(aminomethyl)morpholin-4-yl]-[4-[[3-[4-(difluoromethoxy)phenyl]imi-dazo[1,2-a]pyrazin-8-yl]amino]-2-methylphenyl]methanone; hy-drochloride] | 2.5 |
| – | Cc1cc(Nc2nccn3c(-c4ccc(OC(F)F)cc4)cnc23)ccc1C(=O)N1CCOC2(CCNCC2)C1 [Example 379, [4-[[3-[4-(difluoromethoxy)phenyl]imi-dazo[1,2-a]pyrazin-8-yl]amino]-2-methylphenyl]-(1-oxa-4,9-diazaspiro[5.5]undecan-4-yl)methanone; hydrochloride] | 2.8 |
| – | Cc1cnn(CC2CCN(C(=O)c3ccc(Nc4nccn5c(-c6ccc(OC(F)F)cc6)cnc45)cc3C)CC2)c1 [Example 380, [4-[[3-[4-(difluoromethoxy)phenyl]imi-dazo[1,2-a]pyrazin-8-yl]amino]-2-methylphenyl]-[4-[(4-methylpyrazol-1-yl)methyl]piperidin-1-yl]methanone] | 2.8 |
| – | Cc1cc(Nc2nccn3c(-c4ccc(OC(F)F)cc4)cnc23)ccc1C(=O)N1CCC2(CCNCC2)C1 [Example 381, 2,8-diazaspiro[4.5]decan-2-yl-[4-[[3-[4-(difluoromethoxy)phenyl]imi-dazo[1,2-a]pyrazin-8-yl]amino]-2-methylphenyl]methanone; hy-drochloride] | 2.9 |
| – | Cc1cc(Nc2nccn3c(-c4ccc(OC(F)F)cc4)cnc23)ccc1C(=O)N1CCC(CC(=O)O)CC1 [Example 382, 2-[1-[4-[[3-[4-(difluoromethoxy)phenyl]imi-dazo[1,2-a]pyrazin-8-yl]amino]-2-methylbenzoyl]piperidin-4-yl]acetic acid] | 3.6 |
| 4.3 | COc1ccc(-c2cnc3c(Nc4ccc(C(=O)N5CCCN(C)CC5)c(C)c4)nccn23)cc1 [Example 383, [4-[[3-(4-methoxyphenyl)imidazo[1,2-a]pyrazin-8-yl]amino]-2-methylphenyl]-(4-methyl-1,4-diazepan-1-yl)methanone] | – |
| 5.2 | COc1ccc(-c2cnc3c(Nc4ccc(C(=O)N5CCC(N(C)C)C5)c(C)c4)nccn23)cc1 (stereo not drawn) [Example 384, [3-(dimethylamino)pyrrolidin-1-yl]-[4-[[3-(4-methoxyphenyl)imidazo[1,2-a]pyrazin-8-yl]amino]-2-methylphenyl]methanone] | – |
| – | CN1CCN(C(=O)c2ccc(Nc3nccn4c(-c5ccc(OC(F)F)cc5)cnc34)cc2C(F)(F)F)CC1 [Example 385, [4-[[3-[4-(difluoromethoxy)phenyl]imi-dazo[1,2-a]pyrazin-8-yl]amino]-2-(trifluoromethyl)phenyl]-(4-methylpiperazin-1-yl)methanone] | 7.4 |
| – | CCc1cc(Nc2nccn3c(-c4ccc(OC)c(F)c4)cnc23)ccc1C(=O)N1CCC(CN)CC1 [Example 386, [4-(aminomethyl)piperidin-1-yl]-[2-ethyl-4-[[3-(3-fluoro-4-methoxyphenyl)imidazo[1,2-a]pyrazin-8-yl]amino]phenyl]methanone; formic acid] | 0.18 |
| 0.24 | Cc1cc(Nc2nccn3c(-c4ccc(OCC#CCO)c(F)c4)cnc23)ccc1C(=O)N1CCC(CN)CC1 [Example 387, [4-(aminomethyl)piperidin-1-yl]-[4-[[3-[3-fluoro-4-(4-hydroxybut-2-ynoxy)phenyl]imidazo[1,2-a]pyrazin-8-yl]amino]-2-methylphenyl]methanone; for-mic acid] | – |
| 0.26 | COc1ccc(-c2cnc3c(Nc4ccc(C(=O)N5CCC(C(=O)NC(CO)(CO)CO)CC5)c(C)c4)nccn23)cc1F [Example 388, N-[1,3-dihydroxy-2-(hydroxymethyl)propan-2-yl]-1-[4-[[3-(3-fluoro-4-methoxyphenyl)imidazo[1,2-a]pyrazin-8-yl]amino]-2-methylbenzoyl]piperidine-4-carboxamide] | – |
| 0.31 | COc1ccc(-c2cnc3c(Nc4ccc(C(=O)N5CCN(S(N)(=O)=O)CC5)c(C)c4)nccn23)cc1F [Example 389, 4-[4-[[3-(3-fluoro-4-methoxyphenyl)imidazo[1,2-a]pyrazin-8-yl]amino]-2-methylbenzoyl]piperazine-1-sulfonamide] | – |
| 0.32 | COc1ccc(-c2cnc3c(Nc4ccc(C(=O)N5CCC(N6CCCC(CO)C6)CC5)c(C)c4)nccn23)cc1F (stereo not drawn) [Example 390, [4-[[3-(3-fluoro-4-methoxyphenyl)imidazo[1,2-a]pyrazin-8-yl]amino]-2-methylphenyl]-[4-[3-(hydroxymethyl)piperidin-1-1-yl)piperidin-1-yl]methanone] | – |
| – | CNCCN(C)C(=O)C1CCN(C(=O)c2ccc(Nc3nccn4c(-c5ccc(OC)c(F)c5)cnc34)cc2C)CC1 [Example 391, 1-[4-[[3-(3-fluoro-4-methoxyphenyl)imidazo[1,2-a]pyrazin-8-yl]amino]-2-methylbenzoyl]-N-methyl-N-[2-(methylamino)ethyl]piperidine-4-carboxamide; hydrochloride] | 0.34 |
| – | COc1ccc(-c2cnc3c(Nc4ccc(C(=O)N5CCC(C(=O)N6CC[C@@H](N)[C@@H](O)C6)CC5)c(C)c4)nccn23)cc1F [Example 392, [4-[(3S,4R)-4-amino-3-hydroxypiperidine-1-carbonyl]piperidin-1-yl]-[4-[[3-(3-fluoro-4-methoxyphenyl)imidazo[1,2-a]pyrazin-8-yl]amino]-2-methylphenyl]methanone; 2,2,2-trifluoroacetic acid] | 0.34 |
| – | COc1ccc(-c2cnc3c(Nc4ccc(C(=O)N5CCC(C(=O)NCCN)CC5)c(C)c4)nccn23)cc1F [Example 393, N-(2-aminoethyl)-1-[4-[[3-(3-fluoro-4-methoxyphenyl)imidazo[1,2-a]pyrazin-8-yl]amino]-2-methylbenzoyl]piperidine-4-carboxamide; hydrochloride] | 0.34 |
| – | COc1ccc(-c2cnc3c(Nc4ccc(C(=O)N5CCC(CN)CC5)c(C(F)(F)F)c4)nccn23)cc1F [Example 394, [4-(aminomethyl)piperidin-1-yl]-[4-[[3-(3-fluoro-4-methoxyphenyl)imidazo[1,2-a]pyrazin-8-yl]amino]-2-(trifluoromethyl)phenyl]meth-anone; formic acid] | 0.34 |
| 0.34 | COc1ccc(-c2cnc3c(Nc4ccc(C(=O)N5CCC(C(=O)N6CCNC7(CC7)C6)CC5)c(C)c4)nccn23)cc1F [Example 395, [4-(4,7-diazaspiro[2.5]octane-7-carbonyl)piperidin-1-yl]-[4-[[3-(3-fluoro-4-methoxyphenyl)imidazo[1,2-a]pyrazin-8-yl]amino]-2-methylphenyl]methanone; hy-drochloride] | – |
| 0.34 | COc1ccc(-c2cnc3c(Nc4ccc(C(=O)N5CCC(C(=O)NCCNCCO)CC5)c(C)c4)nccn23)cc1F [Example 396, 1-[4-[[3-(3-fluoro-4-methoxyphenyl)imidazo[1,2-a]pyrazin-8-yl]amino]-2-methylbenzoyl]-N-[2-(2-hydroxyethylamino)ethyl]pi-peridine-4-carboxamide; 2,2,2-trifluoroacetic acid] | – |
| 0.36 | COc1ccc(-c2cnc3c(Nc4ccc(C(=O)N5CCC(C(=O)N6CCN(c7nccn7C)CC6)CC5)c(C)c4)nccn23)cc1F [Example 397, [4-[[3-(3-fluoro-4-methoxyphenyl)imidazo[1,2-a]pyrazin-8-yl]amino]-2-methylphenyl]-[4-[4-(1-methylimidazol-2-yl)piperazine-1-carbonyl]piperidin-1-yl]methanone] | – |
